In US20130224223A1, “Compositions and Methods for Treating Neurological Disorders” (GEORGIA REGENTS UNIVERSITY, priority 2007, published 2013):

Tests used:
[1] = system: prefrontal cortical slices; test: eIPSC recording in prefrontal cortical slices; type: cell-based, mice; settings: for evoked IPSCs (eIPSCs): substance alone, no other exogenous agent, AG1478/AG879 5 mM [sic]
Protocol: Transverse prefrontal cortical slices (0.3 mm) were prepared from P28-P36 mice using a Vibroslice (Leica VT 10005) in the ice-cold solution, which contained 2.5 mM KCl, 1.25 mM NaH2PO4, 10 mM MgSO4, 0.5 mMCaCl2, 26 mM NaHCO3, 10 mM glucose, and 230 mM sucrose. Slices were allowed to recover for at least 2 hr in ACSF (1 hr at 34° C. followed by 1 hr at 22° C.) in a solution containing 126 mM NaCl, 2.5 mM KCl, 1.25 mM NaH2PO4, 2 mM MgSO4, 2 mM CaCl2, 26 mM NaHCO3, and 10 mM glucose. Slices were placed in the recording chamber and superfused (1.5 ml/min) with ACSF at 34° C. All solutions were saturated with 95% O2/5% CO2. Neurons were visualized with an IR-sensitive CCD camera with a 403 water-immersion lens (Zeiss, Axioskop2 Fsplus) and recorded using whole-cell voltage-clamp techniques (MultiClamp 7008 Amplifier, Digidata 1320A analog-to-digital converter) and pClamp 9.2 software (Axon Instruments). Glass pipettes were filled with the solution containing 125 mM Cs-gluconate, 10 mM CsCl, 1 mM MgCl2, 10 mM HEPES, 1 mM EGTA, 0.1 mM CaCl2, 10 mM sodium phosphocreatine, 4 mM Mg-ATP, 0.3 mM GTP, 0.2 mM leupeptin, and 5 mM lidocaine N-ethylchloride (QX314) (pH 7.2, with the osmolarity adjusted to 280 mOsm with sucrose). The resistance of pipettes was 2-3 MΩ For mIPSC recording, QX314 was omitted in the pipette filling solution, whereas […] was included in the superfusing solution. eIPSCs were generated with a two-concentric bipolar stimulating electrode ([…] pole separation; FHC, ME) positioned about […] from the neuron under recording. Single or paired pulses of 0.2 ms were delivered at 0.1 Hz and synchronized using a Mater-8 stimulator (A.M.P.I). The holding potential for both mIPSCs and eIPSCs was −65 mV. All experiments were done at 34° C. in the presence of 6-cyano-7-nitroquinoxaline-2,3-dione (CNQX, […]) and AP-5 ([…]) to block AMPA/NMDA receptors. Data were collected when series resistance fluctuated within 15% of initial values (8-15 MU), they were filtered at 2 kHz, and they were sampled at 10 kHz.

cortical slices = test: [3H]GABA release from prefrontal cortical slices; type: cell-based, mice; settings: 20 mM KCl; for depolarization-evoked [3H]GABA release: substance alone, no other exogenous agent, AG1478/AG879 5 mM [sic]
Protocol: FIG. 2A is a line graph of [^3H]GABA release fraction/total fraction versus time (mins). Cortical slices were preloaded with [^3H]GABA for 30 min in the presence of b-alanine (1 mM), an inhibitor of [^3H]GABA uptake by glial cells, aminooxyacetic acid (0.1 mM), an inhibitor of GABA degradation, and nipecotic acid (1 mM), an inhibitor of the GABA transporter in neurons. Basal and depolarization (20 mM KCl)-evoked release of [^3H]GABA were monitored sequentially. Controls (open circles) and NRG1 (closed circles). FIG. 2B is a line graph of percent [^3H]GABA release versus NRG1 concentration (nM). Basal (open circles) K+ evoked (closed circles). […] FIG. 2D is a line graph of cumulative counts versus mIPSC amplitude (pA). Controls (open circles) and NRG1 (closed circles). FIG. 2E is a line graph of cumulative counts versus mIPSC interevent interval (ms). Controls (open circles) and NRG1 (closed circles). FIG. 2F is a bar graph of mIPSC (percent) in control and NRG1 treated pyramidal neurons in prefrontal cortical slices (n=12). Amplitude (clear) and Frequencies (hatched). FIG. 2G is a bar graph of percent eIPSC amplitude in prefrontal cortical slices treated with NRG1 versus control or washout. n=12, *p<0.01. Representative eIPSCs of control, NRG1-treated, or NRG1-treated/washed slices are shown on top. FIG. 2H is a line graph of percent eIPSC amplitude versus NRG1 (nM). n=6, *p<0.05, **p<0.01. FIG. 2I is a bar graph of K^+ evoked [^3H]GABA release (percent) (left axis, clear rectangles) and eIPSC amplitude (percent) (right axis, hatched rectangles) in prefrontal cortical slices treated with NRG1, denature NRG1, or BDNF. n=8 for [^3H]GABA release; for eIPSCs, n=6 for control, NRG1, and denatured NRG1, and n=4 for BDNF. *p<0.05, #p<0.05; **p<0.05, ##<0.01.
NRG1 may regulate GABAergic neurotransmission. To test this hypothesis, the effects of NRG1 on GABA release in cortical slices were determined by both biochemical and electrophysiological approaches. Basal [^3H]GABA release was low, at a rate of 3.75±0.35% (n=8) of total radioactivity per 10 min (FIG. 2A). Treatment of slices with 20 mM KCl, a condition known to depolarize neurons, increased [^3H]GABA release by 2.5-3.5 folds within 10 min (FIG. 2A). NRG1 had no effect on basal [^3H]GABA release; by contrast, it increased depolarization-evoked GABA release in a dose-dependent manner (FIG. 2B). […] Furthermore, the NRG regulation remained unchanged in the presence of antagonists of metabotropic glutamate receptors, cholinergic receptors, serotonin receptors, adrenergic receptors and/or dopamine receptors. As a control, BDNF decreased depolarization-evoked GABA release and eIPSCs in cortical slices, in agreement with earlier studies (Canas, et al., Brain Res, 1016:72-78 (2004); Frerking, et al., J Neurophysiol, 80:3383-3386 (1998)).

[2] = system: PV-Cre;ErbB4−/− and PV-Cre;ErbB4+/+ mice; test: pre-pulse inhibition (PPI) test; type: in vivo; settings: 3 mg/kg
Source text: FIG. 16A is a bar graph showing the baseline startle response (startle amplitude) for PV-Cre;ErbB4+/+ (white bar, n=7) and PV-Cre;ErbB4−/− (hatched bar, n=6) mice under no stimulus, 70 dB (−) and startle stimulus, 120 dB (+), respectively; P>0.05). FIG. 16B is bar graph showing pre-pulse inhibition (%) for PV-Cre;ErbB4+/+ (white bar, n=7) and PV-Cre;ErbB4−/− (hatched bar, n=6) mice at three different levels of pre-pulse (75 dB, 80 dB, 85 dB), P=0.004. PPI=100−100%×(PPx/P120), in which PPx was the amplitude of the startle response after each pre-pulse and P120 was basal startle amplitude. FIG. 16C is a bar graph showing pre-pulse inhibition (%) for PV-Cre;ErbB4+/+ and PV-Cre;ErbB4−/− mice at three different levels of pre-pulse (75 dB, white bars) (80 dB, hatched bars), (85 dB, stippled bars), treated with vehicle or 3 mg/kg diazepam. Repeated measures, * P<0.05, # P=0.573. For vehicle treatment, n=10 and 12 for PV-Cre;ErbB4−/− mice and PV-Cre;ErbB4+/+ littermates, respectively; for diazepam treatment, n=9 and 11 for PV-Cre; ErbB4−/− and PV-Cre;ErbB4+/+, respectively. […]

Molecule	evoked IPSCs (eIPSCs) [1]	NRG1 potentiation of eIPSCs ([1]; substance given with exogenous NRG1 (5 nM))	depolarization-evoked [3H]GABA release (cortical slices)	NRG1-enhanced evoked GABA release (cortical slices; substance given with exogenous NRG1)	PPI in PV-Cre;ErbB4−/− mice ([2]; acute administration, mutant mice)	PPI in control mice ([2]; after 30-min treatment, PV-Cre;ErbB4+/+ littermates)
CC(C)(C)c1cc(/C=C(\C#N)C(N)=S)cc(C(C)(C)C)c1O [AG879]	no detectable effect	no detectable effect	no detectable effect	no detectable effect		
CN1C(=O)CN=C(c2ccccc2)c2cc(Cl)ccc21 [diazepam]					significantly enhanced	no effect
BDNF: BDNF, a gift from Regeneron; used as a control (protein, UniProt P23560 19-247, looked up) Neurotrophic factor BDNF …: APMKEANIRGQGGLAYPGVRTHGTLESVNGPKAGSRGLTSLADTFEHVIEELLDEDQKVRPNEENNKDADLYTSRVMLSSQVPLEPPLLFLLEEYKNYLDAANMSMRVRRHSDPARRGELSVCDSISEWVTAADKKTAVDMSGGTVTVLEKVPVSKGQLKQYFYETKCNPMGYTKEGCRGIDKRHWNSQCRTTQSYVRALTMDSKKRIGWRFIRIDTSCVCTLTIKRGR	decreased		decreased			
